Data taken from US6358885B1, “Substituted phenylheterocyclic herbicides” (Mississippi State University, priority 1992, dated 2002).

Columns and labels:
Assay in all cases: Test G preemergence/postemergence greenhouse plant response rating 0 to 100
yellow nutsedge = format: in vivo, Cyperus esculentus; conditions: Rate 125 g/ha, 0 to 100 scale
Source text: (§1) Seeds, rhizomes, or plant parts of alfalfa (Medicago ativa), annual bluegrass (Poa annua), bermudagrass (Cynodon dactylon), broadleaf signalgrass (Brachiaria plantaginea), common purslane (Portulaca oleracea), common ragweed (Ambrosia elatior), […] (Paspalum dilatatum), goosegrass (Eleusine indica), guineagrass (Panicum maximum), […] exaltata), johnsongrass (Sorghum halepense), large crabgrass (Digitaria sanguinalis), peanut (Arachis hypoagaea), pitted morningglory (Ipomoea lacunosa), purple nutsedge (Cyperus rotundus), sandbur (Cenchrus echinatus), smooth crabgrass (Digitaria ischaemum) and yellow nutsedge (Cyperus esculentus) were planted into greenhouse pots containing greenhouse planting medium. Each pot contained only one plant species. The test compound was dissolved in a non-phytotoxic solvent and applied preemergence and/or postemergence to the plants. Preemergence applications were made within one day of planting the seeds or plant parts. Postemergence applications were applied when the plants were in the two to four leaf stage (three to twenty cm). Test chemicals were dissolved in a non-phytotoxic solvent and applied preemergence and postemergence to the plants. Untreated control plants and treated plants were placed in the greenhouse and visually evaluated for injury at 13 to 21 days after herbicide application. […] A dash (-) response indicates no test result.

large crabgrass = format: in vivo, Digitaria sanguinalis; conditions: 0 to 100 scale
Source text: as §1

goosegrass = format: in vivo, Eleusine indica; conditions: 0 to 100 scale
Source text: as §1

common ragweed = format: in vivo, Ambrosia elatior; conditions: 0 to 100 scale
Source text: as §1

pitted morningglory = format: in vivo, Ipomoea lacunosa; conditions: 0 to 100 scale
Source text: as §1

peanut = format: in vivo, Arachis hypoagaea; conditions: 0 to 100 scale
Source text: as §1

annual bluegrass = format: in vivo, Poa annua; conditions: 0 to 100 scale
Source text: as §1

guineagrass = format: in vivo, Panicum maximum; conditions: 0 to 100 scale
Source text: as §1

smooth crabgrass = format: in vivo, Digitaria ischaemum; conditions: 0 to 100 scale
Source text: as §1

broadleaf signalgrass = format: in vivo, Brachiaria plantaginea; conditions: 0 to 100 scale
Source text: as §1

bermudagrass = format: in vivo, Cynodon dactylon; conditions: 0 to 100 scale
Source text: as §1

itchgrass = format: in vivo, Rottboellia exaltata; conditions: 0 to 100 scale
Source text: as §1

sandbur = format: in vivo, Cenchrus echinatus; conditions: 0 to 100 scale
Source text: as §1

common purslane = format: in vivo, Portulaca oleracea; conditions: 0 to 100 scale
Source text: as §1

johnsongrass = format: in vivo, Sorghum halepense; conditions: 0 to 100 scale
Source text: as §1

dallisgrass = format: in vivo, Paspalum dilatatum; conditions: 0 to 100 scale
Source text: as §1

**Q.** What does the source list for `Fc1cc(Cl)c(OCc2ccccc2)cc1-c1nn2c(c1Cl)CCCC2` [Compound 22]?
**A.** Plant response rating, Yellow Nutsedge (yellow nutsedge; POSTEMERGENCE): 0; Plant response rating, Yellow Nutsedge (yellow nutsedge; PREEMERGENCE): 0; Plant response rating, Large Crabgrass (large crabgrass; POSTEMERGENCE, Rate 125 g/ha): 0; Plant response rating, Large Crabgrass (large crabgrass; POSTEMERGENCE, Rate 250 g/ha): 0; Plant response rating, Large Crabgrass (large crabgrass; PREEMERGENCE, Rate 125 g/ha): 0; Plant response rating, Large Crabgrass (large crabgrass; PREEMERGENCE, Rate 250 g/ha): 0; Plant response rating, Goosegrass (goosegrass; POSTEMERGENCE, Rate 125 g/ha): 0; Plant response rating, Goosegrass (goosegrass; POSTEMERGENCE, Rate 250 g/ha): 0; Plant response rating, Goosegrass (goosegrass; PREEMERGENCE, Rate 125 g/ha): 0; Plant response rating, Goosegrass (goosegrass; PREEMERGENCE, Rate 250 g/ha): 0; Plant response rating, Cmn Ragweed (common ragweed; POSTEMERGENCE, Rate 125 g/ha): 70; Plant response rating, Cmn Ragweed (common ragweed; POSTEMERGENCE, Rate 250 g/ha): 20; Plant response rating, Cmn Ragweed (common ragweed; PREEMERGENCE, Rate 125 g/ha): 0; Plant response rating, Cmn Ragweed (common ragweed; PREEMERGENCE, Rate 250 g/ha): 0; Plant response rating, Pit Morninglory (pitted morningglory; POSTEMERGENCE, Rate 125 g/ha): 20; Plant response rating, Pit Morninglory (pitted morningglory; POSTEMERGENCE, Rate 250 g/ha): 0; Plant response rating, Pit Morninglory (pitted morningglory; PREEMERGENCE, Rate 125 g/ha): 0; Plant response rating, Pit Morninglory (pitted morningglory; PREEMERGENCE, Rate 250 g/ha): 0; Plant response rating, Peanuts (peanut; POSTEMERGENCE, Rate 125 g/ha): 0; Plant response rating, Peanuts (peanut; POSTEMERGENCE, Rate 250 g/ha): 0; Plant response rating, Peanuts (peanut; PREEMERGENCE, Rate 125 g/ha): 0; Plant response rating, Peanuts (peanut; PREEMERGENCE, Rate 250 g/ha): 0; Plant response rating, Ann Bluegrass (annual bluegrass; POSTEMERGENCE, Rate 125 g/ha): 0; Plant response rating, Ann Bluegrass (annual bluegrass; POSTEMERGENCE, Rate 250 g/ha): 0; Plant response rating, Ann Bluegrass (annual bluegrass; PREEMERGENCE, Rate 125 g/ha): 0; Plant response rating, Ann Bluegrass (annual bluegrass; PREEMERGENCE, Rate 250 g/ha): 0; Plant response rating, Guineagrass (guineagrass; POSTEMERGENCE, Rate 125 g/ha): 0; Plant response rating, Guineagrass (guineagrass; POSTEMERGENCE, Rate 250 g/ha): 0; Plant response rating, Guineagrass (guineagrass; PREEMERGENCE, Rate 125 g/ha): 0; Plant response rating, Guineagrass (guineagrass; PREEMERGENCE, Rate 250 g/ha): 0; Plant response rating, Smooth Crabgras (smooth crabgrass; POSTEMERGENCE, Rate 125 g/ha): 0; Plant response rating, Smooth Crabgras (smooth crabgrass; POSTEMERGENCE, Rate 250 g/ha): 0; Plant response rating, Smooth Crabgras (smooth crabgrass; PREEMERGENCE, Rate 125 g/ha): 0; Plant response rating, Smooth Crabgras (smooth crabgrass; PREEMERGENCE, Rate 250 g/ha): 0; Plant response rating, Brdlf Sgnlgrass (broadleaf signalgrass; POSTEMERGENCE, Rate 125 g/ha): 0; Plant response rating, Brdlf Sgnlgrass (broadleaf signalgrass; POSTEMERGENCE, Rate 250 g/ha): 0; Plant response rating, Brdlf Sgnlgrass (broadleaf signalgrass; PREEMERGENCE, Rate 125 g/ha): 0; Plant response rating, Brdlf Sgnlgrass (broadleaf signalgrass; PREEMERGENCE, Rate 250 g/ha): 0; Plant response rating, Bermudagrass (bermudagrass; POSTEMERGENCE, Rate 125 g/ha): 20; Plant response rating, Bermudagrass (bermudagrass; POSTEMERGENCE, Rate 250 g/ha): 0; Plant response rating, Bermudagrass (bermudagrass; PREEMERGENCE, Rate 125 g/ha): 0; Plant response rating, Bermudagrass (bermudagrass; PREEMERGENCE, Rate 250 g/ha): 0; Plant response rating, Itchgrass (itchgrass; POSTEMERGENCE, Rate 125 g/ha): 0; Plant response rating, Itchgrass (itchgrass; POSTEMERGENCE, Rate 250 g/ha): 0; Plant response rating, Itchgrass (itchgrass; PREEMERGENCE, Rate 125 g/ha): 0; Plant response rating, Itchgrass (itchgrass; PREEMERGENCE, Rate 250 g/ha): 0; Plant response rating, S. Sandbur (sandbur; POSTEMERGENCE, Rate 125 g/ha): 0; Plant response rating, S. Sandbur (sandbur; POSTEMERGENCE, Rate 250 g/ha): 0; Plant response rating, S. Sandbur (sandbur; PREEMERGENCE, Rate 125 g/ha): 0; Plant response rating, S. Sandbur (sandbur; PREEMERGENCE, Rate 250 g/ha): 0; Plant response rating, Cmn Purslane (common purslane; POSTEMERGENCE, Rate 125 g/ha): 80; Plant response rating, Cmn Purslane (common purslane; POSTEMERGENCE, Rate 250 g/ha): 70; Plant response rating, Cmn Purslane (common purslane; PREEMERGENCE, Rate 125 g/ha): 0; Plant response rating, Cmn Purslane (common purslane; PREEMERGENCE, Rate 250 g/ha): 0; Plant response rating, Johnsongrass (johnsongrass; POSTEMERGENCE, Rate 125 g/ha): 0; Plant response rating, Johnsongrass (johnsongrass; POSTEMERGENCE, Rate 250 g/ha): 0; Plant response rating, Johnsongrass (johnsongrass; PREEMERGENCE, Rate 125 g/ha): 0; Plant response rating, Johnsongrass (johnsongrass; PREEMERGENCE, Rate 250 g/ha): 0; Plant response rating, Dallisgrass (dallisgrass; POSTEMERGENCE, Rate 125 g/ha): 0; Plant response rating, Dallisgrass (dallisgrass; POSTEMERGENCE, Rate 250 g/ha): 0; Plant response rating, Dallisgrass (dallisgrass; PREEMERGENCE, Rate 125 g/ha): 0; Plant response rating, Dallisgrass (dallisgrass; PREEMERGENCE, Rate 250 g/ha): 0
